Ki data for 42 molecules are collected here from US8609715B2, “Heteroarylcarboxylic acid ester derivative” (Ajinomoto Co., Inc., priority 2009, dated 2013).

Where a name gives a salt, the structure may show the parent alone.

recombinant human enteropeptidase, sequence (P98073 whole entry): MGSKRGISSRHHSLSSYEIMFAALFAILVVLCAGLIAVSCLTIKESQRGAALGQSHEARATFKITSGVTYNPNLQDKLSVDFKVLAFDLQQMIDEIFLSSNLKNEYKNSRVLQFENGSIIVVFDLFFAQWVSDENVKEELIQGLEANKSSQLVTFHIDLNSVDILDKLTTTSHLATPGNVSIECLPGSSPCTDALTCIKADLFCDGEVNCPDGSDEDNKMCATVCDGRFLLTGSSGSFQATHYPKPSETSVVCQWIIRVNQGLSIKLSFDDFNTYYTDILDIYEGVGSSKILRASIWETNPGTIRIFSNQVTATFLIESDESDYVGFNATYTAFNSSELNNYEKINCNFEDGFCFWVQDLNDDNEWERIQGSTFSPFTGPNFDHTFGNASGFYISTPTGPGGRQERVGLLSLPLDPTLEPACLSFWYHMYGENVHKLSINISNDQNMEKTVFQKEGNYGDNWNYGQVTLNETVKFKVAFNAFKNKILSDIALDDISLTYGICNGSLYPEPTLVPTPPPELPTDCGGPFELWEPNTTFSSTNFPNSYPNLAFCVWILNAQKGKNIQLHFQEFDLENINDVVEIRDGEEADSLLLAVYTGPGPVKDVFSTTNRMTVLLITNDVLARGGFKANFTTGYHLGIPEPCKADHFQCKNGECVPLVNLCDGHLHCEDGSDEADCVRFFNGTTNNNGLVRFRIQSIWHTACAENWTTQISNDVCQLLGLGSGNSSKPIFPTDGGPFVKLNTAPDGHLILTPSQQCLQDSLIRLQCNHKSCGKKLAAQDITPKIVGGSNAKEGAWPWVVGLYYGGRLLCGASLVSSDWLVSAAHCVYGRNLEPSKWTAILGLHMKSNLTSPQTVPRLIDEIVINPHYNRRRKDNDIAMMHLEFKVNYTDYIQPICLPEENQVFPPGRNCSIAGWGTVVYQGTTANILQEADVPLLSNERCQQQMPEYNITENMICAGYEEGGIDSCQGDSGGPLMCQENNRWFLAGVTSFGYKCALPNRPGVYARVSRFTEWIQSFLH

This experiment concerns the target recombinant human enteropeptidase (Homo sapiens (Human), UniProt P98073). The experiment is described as follows: Measurement of enteropeptidase inhibitory activity. As to conditions: Dixon plot. In kind it is biochemical. Here is the method: Measurement of Enteropeptidase Inhibitory Activity
Using a 96 well plate (#3915, Costar), a test compound (25 μL), 400 mM Tris-HCl buffer (pH 8.0, 25 μL) and 0.5 mg/mL fluorescence enzyme substrate (Gly-Asp-Asp-Asp-Asp-Lys-β-Naphtylamide, 25 μL) were mixed, and recombinant human enteropeptidase (R&D Systems, Inc., 25 μL) was added. Using a fluorescence plate reader fmax (Molecular Devices, Inc.), the reaction rate was measured from the time-course changes at excitation wavelength 320 nm and fluorescence wavelength 405 nm. The Ki value was calculated from the concentration of the test compound, reciprocal of reaction rate, and Km value of the enzyme substrate, and by using Dixon plot.
By Ki is commonly meant the equilibrium dissociation constant of an inhibitor or competing ligand from its target. Turning to `C[C@@H](Cc1ccc(C(=O)Oc2ccc(C(=N)N)cc2)o1)C(=O)N[C@H](CC(=O)O)C(=O)O` [Compound A-45, N-{3-[5-(4-amidinophenoxycarbonyl)-furan-2-yl]-2S-methylpropionyl}-D-aspartic acid trifluoroacetic acid salt], the Ki was found to be 0.46 nM.

Turning to `C[C@H](Cc1ccc(C(=O)Oc2ccc(C(=N)N)cc2)o1)C(=O)N[C@H](CC(=O)O)C(=O)O` [Compound A-46, N-{3-[5-(4-amidinophenoxycarbonyl)-furan-2-yl]-2R-methylpropionyl}-D-aspartic acid trifluoroacetic acid salt], the Ki worked out at 0.35 nM.

As for `CC(Cc1ccc(C(=O)Oc2ccc(C(=N)N)cc2)o1)C(=O)NCCc1ccccc1` (stereo not drawn) [Compound A-47, 5-{2-methyl-2-[(2-phenylethyl)-carbamoyl]ethyl}furan-2-carboxylic acid 4-amidinophenyl ester trifluoroacetic acid salt], the Ki was determined as 1.9 nM.

As to `CC(C)CCNC(=O)C(C)Cc1ccc(C(=O)Oc2ccc(C(=N)N)cc2)o1` (stereo not drawn) [Compound A-48], the Ki came to 1.3 nM.

In the case of `CC(Cc1ccc(C(=O)Oc2ccc(C(=N)N)cc2)o1)C(=O)NCCN(C)C` (stereo not drawn) [Compound A-49], the inhibitory constant (Ki) stood at 7.6 nM.

As for `CC(Cc1ccc(C(=O)Oc2ccc(C(=N)N)cc2)o1)C(=O)NCCO` (stereo not drawn) [Compound A-50], the Ki was 4.4 nM.

Regarding `CC(Cc1ccc(C(=O)Oc2ccc(C(=N)N)cc2)o1)C(=O)N1CCCC1` (stereo not drawn) [Compound A-51], the inhibition constant Ki was 4.9 nM.

Consider `CC(Cc1ccc(C(=O)Oc2ccc(C(=N)N)cc2)o1)C(=O)N1CCCC(C(=O)O)C1` (stereo not drawn) [Compound A-52, N-{3-[5-(4-amidinophenoxycarbonyl)-furan-2-yl]-2-methylpropanoyl}nipecotic acid trifluoroacetic acid salt], for which the Ki was 2.5 nM.

As to `C=CCN(CC(=O)O)C(=O)CCc1ccc(C(=O)Oc2ccc(C(=N)N)cc2)o1` [Compound A-55, N-{3-[5-(4-amidinophenoxycarbonyl)-furan-2-yl]-propionyl}-N-allylglycine trifluoroacetic acid salt], the Ki worked out at 1.3 nM.

As for `CC(Cc1ccc(C(=O)Oc2ccc(C(=N)N)cc2)o1)C(=O)NCP(=O)(O)O` (stereo not drawn) [Compound A-56], the Ki amounted to 1.1 nM.

As for `CC(Cc1ccc(C(=O)Oc2ccc(C(=N)N)cc2)o1)C(=O)N[C@@H](CS(=O)(=O)O)C(=O)O` (stereo partly drawn) [Compound A-57], the Ki turned out to be 0.39 nM.

Consider `CC(CCC(=O)O)Cc1ccc(C(=O)Oc2ccc(C(=N)N)cc2)o1` (stereo not drawn) [Compound A-58, 5-[5-(4-amidinophenoxycarbonyl)furan-2-yl]-4-methylpentanoic acid trifluoroacetic acid salt], for which the Ki was 0.7 nM.

Consider `CC(CCC(=O)N[C@@H](CC(=O)O)C(=O)O)Cc1ccc(C(=O)Oc2ccc(C(=N)N)cc2)o1` (stereo partly drawn) [Compound A-59, N-{5-[5-(4-amidinophenoxycarbonyl)furan-2-yl]-4-methylpentanoyl}-L-aspartic acid trifluoroacetic acid salt], for which the Ki amounted to 0.35 nM.

As to `N=C(N)c1ccc(OC(=O)c2ccc(CC(CCC(=O)O)C(=O)O)o2)cc1` (stereo not drawn) [Compound A-60, 5-[5-(4-amidinophenoxycarbonyl)furan-2-yl]-4-carboxypentanoic acid trifluoroacetic acid salt], the Ki turned out to be 0.31 nM.

On to `N=C(N)c1ccc(OC(=O)c2ccc(CC(CCC(=O)O)C(=O)N[C@@H](CC(=O)O)C(=O)O)o2)cc1` (stereo partly drawn) [Compound A-61, N-{3-[5-(4-amidinophenoxycarbonyl)-furan-2-yl]-2-(carboxyethyl)propanoyl}-L-aspartic acid trifluoroacetic acid salt], for which the Ki came to 0.42 nM.

For `CC(Cc1cc(C(=O)Oc2ccc(C(=N)N)cc2)co1)C(=O)N[C@@H](CC(=O)O)C(=O)O` (stereo partly drawn) [Compound A-62, N-{3-[4-(4-amidinophenoxycarbonyl)-furan-2-yl]-2-methylpropanoyl}-L-aspartic acid trifluoroacetic acid salt], the inhibition constant (Ki) was 2.1 nM.

Consider `CC(Cc1cc(C(=O)Oc2ccc(C(=N)N)cc2F)co1)C(=O)O` (stereo not drawn) [Compound A-63, 3-[4-(4-amidino-2-fluorophenoxycarbonyl)furan-2-yl]-2-methylpropanoic acid trifluoroacetic acid salt], for which the Ki worked out at 0.53 nM.

As for `CC(Cc1cc(C(=O)Oc2ccc(C(=N)N)cc2)co1)C(=O)NCP(=O)(O)O` (stereo not drawn) [Compound A-64], the Ki was found to be 2.5 nM.

As to `CC(Cc1cc(C(=O)Oc2ccc(C(=N)N)cc2)co1)C(=O)N[C@@H](CS(=O)(=O)O)C(=O)O` (stereo partly drawn) [Compound A-65], the Ki is 1 nM.

For the molecule `CC(Cc1cc(C(=O)Oc2ccc(C(=N)N)cc2F)co1)C(=O)N[C@@H](CC(=O)O)C(=O)O` (stereo partly drawn) [Compound A-66], the Ki came to 0.32 nM.

Turning to `CC(Cc1coc(C(=O)Oc2ccc(C(=N)N)cc2)c1)C(=O)N[C@@H](CC(=O)O)C(=O)O` (stereo partly drawn) [Compound A-67, N-[3-[2-(4-amidinophenoxycarbonyl)-furan-4-yl]-2-methylpropanoyl]-L-aspartic acid trifluoroacetic acid salt], the Ki is 0.52 nM.

Take `N=C(N)c1ccc(OC(=O)c2ccc(-c3ccc(C(=O)N[C@@H](CC(=O)O)C(=O)O)cc3)o2)cc1` [Compound A-68, N-{4-[5-(4-amidinophenoxycarbonyl)-furan-2-yl]benzoyl}-L-aspartic acid trifluoroacetic acid salt]: the Ki was found to be 2.2 nM.

Turning to `N=C(N)c1ccc(OC(=O)c2ccc(-c3ccc(C(=O)NCC(=O)O)cc3)o2)cc1` [Compound A-69], the Ki is 4.7 nM.

Regarding `N=C(N)c1ccc(OC(=O)c2ccc(-c3ccc(C(=O)NCP(=O)(O)O)cc3)o2)cc1` [Compound A-70], the Ki was 2.7 nM.

For the molecule `N=C(N)c1ccc(OC(=O)c2ccc(-c3cccc(C(=O)N[C@@H](CC(=O)O)C(=O)O)c3)o2)cc1` [Compound A-71, N-{3-[5-(4-amidinophenoxycarbonyl)-furan-2-yl]benzoyl}-L-aspartic acid trifluoroacetic acid salt], the Ki is 1.6 nM.

For the molecule `CC(Cc1ccc(C(=O)Oc2ccc(C(=N)N)cc2)o1)C(=O)SC(CC(=O)O)C(=O)O` (stereo not drawn) [Compound A-73, S-{3-[5-(4-amidinophenoxycarbonyl)-furan-2-yl]-2-methylpropionyl}thiomalic acid trifluoroacetic acid salt], the Ki amounted to 0.88 nM.

For the molecule `CC(Cc1ccc(C(=O)Oc2ccc(C(=N)N)cc2)o1)C(=O)NN(CC(=O)O)CC(=O)O` (stereo not drawn) [Compound A-74, (N′-carboxymethyl-{3-[5-(4-amidinophenoxycarbonyl)furan-2-yl]-2-methylpropane}hydrazido)-acetic acid trifluoroacetic acid salt], the Ki was 2.6 nM.

`C/C(=C\c1ccc(C(=O)Oc2ccc(C(=N)N)cc2)s1)C(=O)NCC(=O)O` [Compound B-2]: the Ki worked out at 9.29 nM.

Turning to `C/C(=C\c1ccc(C(=O)Oc2ccc(C(=N)N)cc2)s1)C(=O)N[C@@H](CO)C(=O)O` [Compound B-3], the Ki was 5.72 nM.

Take `CC(Cc1ccc(C(=O)Oc2ccc(C(=N)N)cc2)s1)C(=O)O` (stereo not drawn) [Compound B-6, 3-[5-(4-amidinophenoxycarbonyl)-thiophen-2-yl]-2-methylpropanoic acid trifluoroacetic acid salt]: the Ki came out at 1.44 nM.

For the molecule `C/C(=C\c1ccc(C(=O)Oc2ccc(C(=N)N)cc2)s1)C(=O)N(CCCO)CCS(=O)(=O)O` [Compound B-7, N-{(2E)-3-[5-(4-amidinophenoxycarbonyl)thiophen-2-yl]-2-methylpropenoyl}-N-hydroxypropyltaurine trifluoroacetic acid salt], the Ki is 2.15 nM.

Regarding `C/C(=C\c1ccc(C(=O)Oc2ccc(C(=N)N)cc2[N+](=O)[O-])s1)C(=O)O` [Compound B-8], the Ki was 0.84 nM.

On to `CC(Cc1ccc(C(=O)Oc2ccc(C(=N)N)cc2[N+](=O)[O-])s1)C(=O)N(CCCO)CC(=O)O` (stereo not drawn) [Compound B-11, N-{3-[5-(4-amidino-2-nitrophenoxycarbonyl)thiophen-2-yl]-2-methylpropanoyl}-N-(3-hydroxypropyl)glycine hydrochloride], for which the Ki was 1.41 nM.

In the case of `CC(Cc1ccc(C(=O)Oc2ccc(C(=N)N)cc2)s1)C(=O)NCC(=O)O` (stereo not drawn) [Compound B-12], the Ki worked out at 2.21 nM.

As to `CC(Cc1ccc(C(=O)Oc2ccc(C(=N)N)cc2Br)s1)C(=O)O` (stereo not drawn) [Compound B-16, 3-[5-(4-amidino-2-bromophenoxycarbonyl)thiophen-2-yl]-2-methylpropionic acid trifluoroacetic acid salt], the Ki was determined as 0.29 nM.

`CC(Cc1ccc(C(=O)Oc2ccc(C(=N)N)cc2Cl)s1)C(=O)O` (stereo not drawn) [Compound B-17]: the Ki amounted to 0.42 nM.

Regarding `CC(Cc1ccc(C(=O)Oc2ccc(C(=N)N)cc2F)s1)C(=O)O` (stereo not drawn) [Compound B-19], the inhibitory constant (Ki) was 0.42 nM.

Regarding `CC(Cc1ccc(C(=O)Oc2ccc(C(=N)N)cc2F)s1)C(=O)N[C@@H](CC(=O)O)C(=O)O` (stereo partly drawn) [Compound B-20], the inhibitory constant (Ki) was 0.28 nM.

Turning to `CC(Cc1ccc(C(=O)Oc2ccc(C(=N)N)cc2F)s1)C(=O)N[C@@H](CCC(=O)O)C(=O)O` (stereo partly drawn) [Compound B-21], the Ki is 0.56 nM.

Turning to `CC(Cc1ccc(C(=O)Oc2ccc(C(=N)N)cc2F)s1)C(=O)N[C@H](CC(=O)O)C(=O)O` (stereo partly drawn) [Compound B-22], the Ki is 0.5 nM.

Consider `CC(Cc1ccc(C(=O)Oc2ccc(C(=N)N)c(F)c2)s1)C(=O)O` (stereo not drawn) [Compound B-24], for which the Ki amounted to 0.49 nM.

As to `C[C@H](Cc1ccc(C(=O)Oc2ccc(C(=N)N)cc2F)s1)C(=O)N[C@@H](CC(=O)O)C(=O)O` [Compound B-25, N-{3-[5-(4-amidino-2-fluorophenoxycarbonyl)thiophen-2-yl]-2R-methylpropionyl}-L-aspartic acid trifluoroacetic acid salt], the Ki turned out to be 0.79 nM.
